Data set [1] relates to COX-2. Further details: method as in PMID 24306215. To be noted: rat model of carrageenan-induced pleurisy; cited from earlier work.
In data set [2] the test system is iNOS. Set-up: method as in PMID 24306215. The note with it: rat model of carrageenan-induced pleurisy; cited from earlier work.
For data set [3], the system named is COX-2. Set-up: method as in PMID 23931157. The note with it: 25 μM; cited from earlier work.
For data set [4], the system named is iNOS. Further details: method as in PMID 23931157. The note with it: 25 μM; cited from earlier work.
For data set [5], the system named is NOX-1. Set-up: method as in PMID 23931157. To be noted: 25 μM; cited from earlier work.
Details of data set [6]: method as in PMID 15447903, PMID 24306215, PMID 28358315. The note with it: in vivo; cited from earlier work.
For data set [7], the system named is GSTP-1. The data set can be described thus: GSTP-1 mRNA level (qPCR) in cytokine-stimulated Caco-2 cells. The format is cell-based, human. To be noted: 5–80 μM, 6 h cytokine stimulation, vs SC. As to the method:
Confluent Caco-2 cells were stimulated with a cocktail of cytokines comprised of tumour necrosis factor-α (TNF-α, 20 ng mL^−1), interleukin-1β (IL-1β, 40 ng mL^−1), interferon-γ (IFN-γ, 10 ng mL^−1) and lipopolysaccharide (LPS, 100 ng mL^−1) in the presence or absence of BET, VUL and IND treatments (5–80 µM) for 6 h. With the completion of incubations, cells were washed with cold DPBS and lysed with TRIsure reagent (Scientific Laboratory Supplies Ltd.). Total RNA of cell samples was extracted in accordance with the manufacturer’s instructions. After resuspending the RNA pellets in DEPC water, concentration and quality were determined using the NanoQuant plate (Tecan Spark 10M plate reader) at 260 and 280 nm. Reverse transcription of RNA was achieved using the iScript™ cDNA Synthesis Kit (Bio-Rad). Transcription levels of target genes—interleukin 6 (IL-6), IL-8, COX-2, iNOS, NADPH oxidase 1 (NOX-1), NAD(P)H quinone dehydrogenase 1 (NQO-1), heme oxygenase 1 (HO-1), glutamate-cysteine ligase catalytic subunit (GCLC), glutathione peroxidase 1 (GPX-1), glutathione S-transferase 1 (GSTA-1) and GSTP-1 were evaluated using SybrGreen based reagent (SensiFast SYBR Green, SLS Ltd., Galveston, TX, USA) via real-time qPCR using StepOne Plus Real-Time PCR System (Applied Biosystems, Nottingham, UK). […]
A general note: Real-time PCR tracks product formation cycle by cycle.

Data set [8] relates to NQO-1. Set-up: method as in PMID 23769299. To be noted: 20 μM, human hepatocytes; cited from earlier work.

As to `O=C(O)C1=C/C(=C/C=[N+]2/CCC[C@H]2C(=O)[O-])C[C@@H](C(=O)O)N1` [IND, indicaxanthin], the “Suppression of COX-2” value in data set [1] is 88%. Also, in data set [2], the “Suppression of iNOS” value is recorded as 75%. Also, in data set [3], the “Suppression of COX-2 protein levels” value was 80%. In data set [4], the “Suppression of iNOS protein levels” value is reported as 90%. Also, the “Suppression of NOX-1 protein levels” value in data set [5] is reported as 89%. Besides, in data set [6], the “Plasma concentration of IND compared with BET” value is recorded as “around 20 fold” and the “Urinary recovery of IND compared with BET” value was “around 20 fold”.
As for `O=C(O)C1=C/C(=C/C=[N+]2/c3cc(O)c(O[C@@H]4O[C@H](CO)[C@@H](O)[C@H](O)[C@H]4O)cc3C[C@H]2C(=O)[O-])C[C@@H](C(=O)O)N1` [BET, betanin], in data set [7], the “Upregulation of GSTP-1 expression” value is given as less than 24%. Also, in data set [8], the “Increase of NQO-1 expression in the baseline” value was “ca. 60%”.

(Values after article PMC9405451, “Uptake and Immunomodulatory Properties of Betanin, Vulgaxanthin I and Indicaxanthin towards Caco-2 Intestinal Cells” (Antioxidants, 2022).)
